Results from patent publication US10517889B2, “Modulators of SMAD7 expression” (Ionis Pharmaceuticals, Inc., priority 2017, dated 2019).

What was measured:
[1] = test system: human peripheral blood mononuclear cells (PBMCs); test: Human PBMC activation assay, cytokine levels (IL-10, IL-6, MCP-1, TNF-α) in supernatant after 24 hours (Example 9); conditions: human PBMC supernatant after 24 hours
Description: Ionis SMAD7 oligonucleotides were tested in an in vitro assay for potential immunostimulatory properties in an in vitro human peripheral blood mononuclear cell (PBMC) activation assay.
Blood samples were collected from healthy human volunteers in heparinized vials and mixed well. Human PBMCs were isolated by gradient centrifugation using Ficoll-Histopaque. The cells were washed, counted and resuspended in medium. The PBMCs were plated in a 24-well culture plate and various concentrations of oligonucleotides were added to the media. An oligonucleotide historically known to promote an inflammatory response was used as a positive control, whereas an oligonucleotide known not to be pro-inflammatory was used as a negative control. […] The supernatants were collected after 24 hours and analyzed for cytokine levels using MSD platform.

[2] = test system: human SMAD7 mRNA; test: Antisense inhibition of human SMAD7 mRNA expression in Hep3B cells by 3-10-3 cEt gapmers, 10,000 nM, electroporation (Example 2); type: cell-based; conditions: approximately 24 hours
In short: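 qRT-PCR (RTS5062) of SMAD7 mRNA, normalised to RIBOGREEN total RNA, gave percent inhibition relative to untreated controls. Hep3B cells at 20,000 per well received 10,000 nM oligonucleotide by electroporation, with ~24 h treatment.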

[3] = Oligonucleotide concentration in liver and colon by LC-MS/MS after subcutaneous administration in CD-1 mice (Example 6); type: in vivo; conditions: 50 mg/kg subcutaneously twice a week for 7 weeks, 48 hours after the last dose
Description: Groups of 8-9 week old male CD-1 mice were injected subcutaneously twice a week for 7 weeks with 50 mg/kg of Ionis oligonucleotides (100 mg/kg/week dose). Each group contained 4 mice. One group of male CD-1 mice was injected subcutaneously twice a week for 7 weeks with PBS. Plasma was collected for analysis on day 28.
Oligonucleotide concentrations in the liver and colon were analyzed using LC-MS/MS method.

[4] = test system: mouse Smad7 mRNA; test: Pharmacology: mouse Smad7 mRNA expression in liver, kidney, duodenum, ileum and colon after subcutaneous administration in CD-1 mice (Example 6); type: in vivo; conditions: 50 mg/kg subcutaneous twice weekly for 7 weeks, normalized to GAPDH
In short: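 Male CD-1 mice, 8-9 weeks old, got 50 mg/kg oligonucleotide subcutaneously twice weekly (100 mg/kg/week) for 7 weeks, with PBS controls; n=4 per group. At necropsy, Smad7 mRNA in liver, kidney, duodenum, ileum and colon was measured by RT-PCR (probe set HTS7555), normalized to GAPDH; one-way ANOVA with Dunnett's test.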

[5] = Oligonucleotide concentrations in tissues by LC-MS/MS after oral gavage in CD-1 mice (Example 7); type: in vivo; conditions: 500 mg/kg oral gavage once daily for 4 weeks, 48 hours after last dose
Description: (§1) Groups of 7-8 week old male CD-1 mice were given an oral gavage dose once daily for 4 weeks of 500 mg/kg of Ionis SMAD7 oligonucleotides. Each group contained 8 mice. One group of male CD-1 mice was administered saline by oral gavage daily.
Oligonucleotide concentrations were detected in various tissues by LC-MS/MS analysis. The greatest concentration was found in the kidney, followed by the colon.

[6] = Blood chemistry markers after oral gavage in CD-1 mice (Example 7); type: in vivo; conditions: 500 mg/kg oral gavage once daily for 4 weeks, day 30
Description: The objective of this study was to evaluate the tolerability and pharmacodynamics of select Ionis human SMAD7 antisense oligonucleotides in CD-1 mice following 4 weeks of treatment. The mice were administered oligonucleotides by oral gavage.
as §1
Levels of transaminases, albumin, and BUN were measured using a Toshiba 200FR NEO chemistry analyzer (Toshiba Co., Japan).

[7] = Plasma chemistry markers after subcutaneous administration in beagle dogs (Example 8); conditions: 30 mg/kg subcutaneous days 1, 3, 5, 8, 15, 22, 29, plasma at day 31
Description: Groups of 24-25 week old male beagle dogs were injected subcutaneously with 30 mg/kg ION Ionis oligonucleotide. There were 4 animals per group. Dogs were injected every two days for the first week (day 1, 3, and 5) and once weekly thereafter (days 8, 15, 22, and 29). A control group of dogs received subcutaneous injections of PBS. Dogs were sacrificed on day 31 approximately 48 hours after the final dose and organs and plasma were harvested for further analysis.
To evaluate the effect of Ionis SMAD7 oligonucleotides on liver and kidney function, plasma levels of transaminases, albumin, creatine and BUN were measured using an automated clinical chemistry analyzer (Toshiba 200FR Neo chemistry analyzer, Toshiba Co., Japan).

For “830025 (antisense TTTGTAAATCGAAAGC; 3-10-3 cEt gapmer, further chemistry not given here) [compound 830025]”, the “Levels of IL-6” value ([1]; 0.0128 μM oligonucleotide) was 3.1 pg/mL, the “Levels of IL-10” value ([1]; 0.0128 μM oligonucleotide) was 1.5 pg/mL and the “Levels of MCP-1” value ([1]; 0.0128 μM oligonucleotide) was 309.7 pg/mL. The “Levels of TNF-α” value ([1]; 0.0128 μM oligonucleotide) was 2.8 pg/mL, the “Levels of IL-6” value ([1]; 0.064 μM oligonucleotide) was 3.8 pg/mL and the “Levels of IL-10” value ([1]; 0.064 μM oligonucleotide) was 1.9 pg/mL. The “Levels of MCP-1” value ([1]; 0.064 μM oligonucleotide) was 353.9 pg/mL, the “Levels of TNF-α” value ([1]; 0.064 μM oligonucleotide) was 2.9 pg/mL and the “Levels of IL-6” value ([1]; 0.32 μM oligonucleotide) was 5.0 pg/mL. For the same substance, the “Levels of IL-10” value ([1]; 0.32 μM oligonucleotide) was 2.6 pg/mL, the “Levels of MCP-1” value ([1]; 0.32 μM oligonucleotide) was 387.7 pg/mL and the “Levels of TNF-α” value ([1]; 0.32 μM oligonucleotide) was 3.9 pg/mL. The “Levels of IL-6” value ([1]; 1.6 μM oligonucleotide) was 12.9 pg/mL, the “Levels of IL-10” value ([1]; 1.6 μM oligonucleotide) was 3.6 pg/mL and the “Levels of MCP-1” value ([1]; 1.6 μM oligonucleotide) was 554.3 pg/mL. The “Levels of TNF-α” value ([1]; 1.6 μM oligonucleotide) was 5.4 pg/mL, the “Levels of IL-6” value ([1]; 8 μM oligonucleotide) was 17.8 pg/mL and the “Levels of IL-10” value ([1]; 8 μM oligonucleotide) was 2.9 pg/mL. The “Levels of MCP-1” value ([1]; 8 μM oligonucleotide) was 750.0 pg/mL, the “Levels of TNF-α” value ([1]; 8 μM oligonucleotide) was 6.7 pg/mL and the “Levels of IL-6” value ([1]; 40 μM oligonucleotide) was 19.5 pg/mL. For the same substance, the “Levels of IL-10” value ([1]; 40 μM oligonucleotide) was 1.4 pg/mL, the “Levels of MCP-1” value ([1]; 40 μM oligonucleotide) was 580.8 pg/mL and the “Levels of TNF-α” value ([1]; 40 μM oligonucleotide) was 7.6 pg/mL. The “Levels of IL-6” value ([1]; 200 μM oligonucleotide) was 30.6 pg/mL, the “Levels of IL-10” value ([1]; 200 μM oligonucleotide) was 0.7 pg/mL and the “Levels of MCP-1” value ([1]; 200 μM oligonucleotide) was 52.7 pg/mL. The “Levels of TNF-α” value ([1]; 200 μM oligonucleotide) was 4.9 pg/mL, the “% Inhibition” value ([2]; Hep3B cells, electroporation with 10,000 nM antisense oligonucleotide, SMAD7 mRNA by RT-PCR (RTS5062), relative to untreated control cells) was 62% and the “Oligonucleotide concentration, Colon” value [3] was 39 μg/g tissue. The “Oligonucleotide concentration, Liver” value [3] was 77 μg/g tissue, the “% inhibition of Smad7 mRNA expression (compared to control), Kidney” value [4] was 45% and the “% inhibition of Smad7 mRNA expression (compared to control), Liver” value [4] was 60%. The “Oligonucleotide concentration, Colon” value [5] was 3.6 µg/g, the “Oligonucleotide concentration, Duodenum” value [5] was 0.7 µg/g and the “Oligonucleotide concentration, Ileum” value [5] was 1.9 µg/g. The “Oligonucleotide concentration, Kidney” value [5] was 21.5 µg/g, the “Oligonucleotide concentration, Liver” value [5] was 2.3 µg/g and the ALT [6] was 34 IU/L. The AST [6] was 65 IU/L, the Albumin [6] was 3.3 g/dL and the BUN [6] was 21 mg/dL. It also gave a Bilirubin [6] of 0.2 mg/dL, an ALT [7] of 26 IU/L and an AST [7] of 38 IU/L. For the same substance, the Albumin [7] was 3.1 g/dL, the BUN [7] was 17.9 mg/dL and the Bilirubin [7] was 0.1 mg/dL. It also gave a Creatine [7] of 0.9 mg/dL.
For “790615 (CCAATGAGAATGCTTC; 3-10-3 cEt gapmer, further chemistry not given here) [compound 790615]”, the “Levels of IL-6” value ([1]; 0.0128 μM oligonucleotide) was 3.7 pg/mL, the “Levels of IL-10” value ([1]; 0.0128 μM oligonucleotide) was 1.1 pg/mL and the “Levels of MCP-1” value ([1]; 0.0128 μM oligonucleotide) was 329.5 pg/mL. The “Levels of TNF-α” value ([1]; 0.0128 μM oligonucleotide) was 3.1 pg/mL, the “Levels of IL-6” value ([1]; 0.064 μM oligonucleotide) was 3.8 pg/mL and the “Levels of IL-10” value ([1]; 0.064 μM oligonucleotide) was 1.6 pg/mL. For the same substance, the “Levels of MCP-1” value ([1]; 0.064 μM oligonucleotide) was 281.8 pg/mL, the “Levels of TNF-α” value ([1]; 0.064 μM oligonucleotide) was 2.5 pg/mL and the “Levels of IL-6” value ([1]; 0.32 μM oligonucleotide) was 6.5 pg/mL. The “Levels of IL-10” value ([1]; 0.32 μM oligonucleotide) was 2.4 pg/mL, the “Levels of MCP-1” value ([1]; 0.32 μM oligonucleotide) was 424.3 pg/mL and the “Levels of TNF-α” value ([1]; 0.32 μM oligonucleotide) was 3.4 pg/mL. The “Levels of IL-6” value ([1]; 1.6 μM oligonucleotide) was 9.0 pg/mL, the “Levels of IL-10” value ([1]; 1.6 μM oligonucleotide) was 3.1 pg/mL and the “Levels of MCP-1” value ([1]; 1.6 μM oligonucleotide) was 495.8 pg/mL. For the same substance, the “Levels of TNF-α” value ([1]; 1.6 μM oligonucleotide) was 4.2 pg/mL, the “Levels of IL-6” value ([1]; 8 μM oligonucleotide) was 10.0 pg/mL and the “Levels of IL-10” value ([1]; 8 μM oligonucleotide) was 1.9 pg/mL. For the same substance, the “Levels of MCP-1” value ([1]; 8 μM oligonucleotide) was 449.0 pg/mL, the “Levels of TNF-α” value ([1]; 8 μM oligonucleotide) was 4.8 pg/mL and the “Levels of IL-6” value ([1]; 40 μM oligonucleotide) was 11.0 pg/mL. The “Levels of IL-10” value ([1]; 40 μM oligonucleotide) was 0.8 pg/mL, the “Levels of MCP-1” value ([1]; 40 μM oligonucleotide) was 301.9 pg/mL and the “Levels of TNF-α” value ([1]; 40 μM oligonucleotide) was 4.8 pg/mL. The “Levels of IL-6” value ([1]; 200 μM oligonucleotide) was 22.9 pg/mL, the “Levels of IL-10” value ([1]; 200 μM oligonucleotide) was 0.7 pg/mL and the “Levels of MCP-1” value ([1]; 200 μM oligonucleotide) was 81.6 pg/mL. The “Levels of TNF-α” value ([1]; 200 μM oligonucleotide) was 4.8 pg/mL, the “% Inhibition” value ([2]; Hep3B cells, electroporation with 10,000 nM antisense oligonucleotide, primer probe set RTS5062, relative to untreated control cells) was 38% and the “% Inhibition” value ([2]; SMAD7 mRNA, Hep3B cells, 10,000 nM antisense oligonucleotide, electroporation, primer probe set RTS5062, relative to untreated control cells) was 40%. For the same substance, the “Oligonucleotide concentration, Colon” value [3] was 13 μg/g tissue, the “Oligonucleotide concentration, Liver” value [3] was 75 μg/g tissue and the “% inhibition of Smad7 mRNA expression (compared to control), Kidney” value [4] was 23%. The “% inhibition of Smad7 mRNA expression (compared to control), Liver” value [4] was 18%, the “Oligonucleotide concentration, Colon” value [5] was 2.9 µg/g and the “Oligonucleotide concentration, Duodenum” value [5] was 0.9 µg/g. The “Oligonucleotide concentration, Ileum” value [5] was 1.6 µg/g, the “Oligonucleotide concentration, Kidney” value [5] was 23.6 µg/g and the “Oligonucleotide concentration, Liver” value [5] was 2.8 µg/g. For the same substance, the ALT [6] was 41 IU/L, the AST [6] was 77 IU/L and the Albumin [6] was 3.3 g/dL. For the same substance, the BUN [6] was 22 mg/dL, the Bilirubin [6] was 0.3 mg/dL and the ALT [7] was 38 IU/L. The AST [7] was 41 IU/L, the Albumin [7] was 3.4 g/dL and the BUN [7] was 15.7 mg/dL. The Bilirubin [7] was 0.2 mg/dL and the Creatine [7] was 0.8 mg/dL.
